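Briefly, cells in 96-well plates were exposed to five compound concentrations for 48 h, and endpoints were estimated by linear interpolation. The concentration for 50% growth inhibition is given as GI50. The concentration for full growth arrest is given as TGI.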
Legend:
Experiment in all cases: DTP human tumour cell line panel, 48 h
IGROV1 ovarian = tested on: IGROV1 ovarian
HL-60(TB) leukemia = tested on: HL-60(TB) leukemia
U251 CNS = tested on: U251 CNS
TK-10 renal = tested on: TK-10 renal
HCC-2998 colon = tested on: HCC-2998 colon
UO-31 renal = tested on: UO-31 renal
NCI/ADR-RES ovarian = tested on: NCI/ADR-RES ovarian
SF-268 CNS = tested on: SF-268 CNS
OVCAR-4 ovarian = tested on: OVCAR-4 ovarian
CCRF-CEM leukemia = tested on: CCRF-CEM leukemia
SK-MEL-5 melanoma = tested on: SK-MEL-5 melanoma
COLO 205 colon = tested on: COLO 205 colon
A549 NSCLC = tested on: A549 NSCLC
T-47D breast = tested on: T-47D breast
SNB-19 CNS = tested on: SNB-19 CNS
EKVX NSCLC = tested on: EKVX NSCLC
CAKI-1 renal = tested on: CAKI-1 renal
NCI-H460 lung = tested on: NCI-H460 lung
SW-620 colon = tested on: SW-620 colon
A498 renal = tested on: A498 renal
PC-3 prostate = tested on: PC-3 prostate
786-0 renal = tested on: 786-0 renal
HT29 colon = tested on: HT29 colon
NCI-H23 lung = tested on: NCI-H23 lung
DU-145 prostate = tested on: DU-145 prostate
HS 578T breast = tested on: HS 578T breast
HOP-62 NSCLC = tested on: HOP-62 NSCLC
SF-295 CNS = tested on: SF-295 CNS
NCI-H522 lung = tested on: NCI-H522 lung
MCF7 breast = tested on: MCF7 breast
SK-MEL-2 melanoma = tested on: SK-MEL-2 melanoma
UACC-62 melanoma = tested on: UACC-62 melanoma
SK-MEL-28 melanoma = tested on: SK-MEL-28 melanoma
K-562 leukemia = tested on: K-562 leukemia
M14 melanoma = tested on: M14 melanoma
SNB-75 CNS = tested on: SNB-75 CNS
BT-549 breast = tested on: BT-549 breast
MOLT-4 leukemia = tested on: MOLT-4 leukemia
OVCAR-5 ovarian = tested on: OVCAR-5 ovarian
UACC-257 melanoma = tested on: UACC-257 melanoma
SK-OV-3 ovarian = tested on: SK-OV-3 ovarian
RXF 393 renal = tested on: RXF 393 renal
MDA-MB-231 breast = tested on: MDA-MB-231 breast
LOX IMVI melanoma = tested on: LOX IMVI melanoma
NCI-H226 lung = tested on: NCI-H226 lung
HOP-92 NSCLC = tested on: HOP-92 NSCLC
HCT-15 colon = tested on: HCT-15 colon
RPMI-8226 leukemia = tested on: RPMI-8226 leukemia
OVCAR-3 ovarian = tested on: OVCAR-3 ovarian
MDA-MB-435 = tested on: MDA-MB-435
KM12 colon = tested on: KM12 colon
ACHN renal = tested on: ACHN renal
SN12C renal = tested on: SN12C renal
OVCAR-8 ovarian = tested on: OVCAR-8 ovarian
MALME-3M melanoma = tested on: MALME-3M melanoma
SF-539 CNS = tested on: SF-539 CNS
HCT-116 colon = tested on: HCT-116 colon

CC[C@H](Nc1nc(NCc2cnc(C)cc2C)c2ncn(C(C)C)c2n1)[C@@H](C)O was tested, and the GI50 (IGROV1 ovarian) was 347 nM, the TGI (IGROV1 ovarian) was over 100000 nM and the GI50 (HL-60(TB) leukemia) was 270 nM. The TGI (HL-60(TB) leukemia) was 744 nM, the GI50 (U251 CNS) was 333 nM and the TGI (U251 CNS) was over 100000 nM. For the same compound, the GI50 (TK-10 renal) was 625 nM, the TGI (TK-10 renal) was over 100000 nM and the GI50 (HCC-2998 colon) was 291 nM. The TGI (HCC-2998 colon) was 2000 nM, the GI50 (UO-31 renal) was 272 nM and the TGI (UO-31 renal) was over 100000 nM. The GI50 (NCI/ADR-RES ovarian) was 1970 nM, the TGI (NCI/ADR-RES ovarian) was over 31000 nM and the GI50 (SF-268 CNS) was 268 nM. The TGI (SF-268 CNS) was 2410 nM, the GI50 (OVCAR-4 ovarian) was 631 nM and the TGI (OVCAR-4 ovarian) was 11500 nM. It also gave a GI50 (CCRF-CEM leukemia) of 326 nM, a TGI (CCRF-CEM leukemia) of over 100000 nM and a GI50 (SK-MEL-5 melanoma) of 219 nM. It also gave a TGI (SK-MEL-5 melanoma) of 498 nM, a GI50 (COLO 205 colon) of 247 nM and a TGI (COLO 205 colon) of 640 nM. It also gave a GI50 (A549 NSCLC) of 353 nM, a TGI (A549 NSCLC) of over 100000 nM and a GI50 (T-47D breast) of 402 nM. For the same compound, the TGI (T-47D breast) was over 100000 nM, the GI50 (SNB-19 CNS) was 318 nM and the TGI (SNB-19 CNS) was over 100000 nM. It also gave a GI50 (EKVX NSCLC) of 319 nM, a TGI (EKVX NSCLC) of 2020 nM and a GI50 (CAKI-1 renal) of 269 nM. It also gave a TGI (CAKI-1 renal) of over 100000 nM, a GI50 (NCI-H460 lung) of 327 nM and a TGI (NCI-H460 lung) of 15700 nM. It also gave a GI50 (SW-620 colon) of 235 nM, a TGI (SW-620 colon) of over 21900 nM and a GI50 (A498 renal) of 167 nM. For the same compound, the TGI (A498 renal) was 391 nM, the GI50 (PC-3 prostate) was 314 nM and the TGI (PC-3 prostate) was over 100000 nM. For the same compound, the GI50 (786-0 renal) was 361 nM, the TGI (786-0 renal) was over 100000 nM and the GI50 (HT29 colon) was 331 nM. The TGI (HT29 colon) was over 100000 nM, the GI50 (NCI-H23 lung) was 334 nM and the TGI (NCI-H23 lung) was 2150 nM. It also gave a GI50 (DU-145 prostate) of 387 nM, a TGI (DU-145 prostate) of over 100000 nM and a GI50 (HS 578T breast) of 281 nM. It also gave a TGI (HS 578T breast) of 956 nM, a GI50 (HOP-62 NSCLC) of 356 nM and a TGI (HOP-62 NSCLC) of over 59700 nM. It also gave a GI50 (SF-295 CNS) of 298 nM, a GI50 (NCI-H522 lung) of 262 nM and a TGI (NCI-H522 lung) of 1310 nM. The GI50 (MCF7 breast) was 284 nM, the TGI (MCF7 breast) was 7230 nM and the GI50 (SK-MEL-2 melanoma) was 549 nM. For the same compound, the TGI (SK-MEL-2 melanoma) was 3010 nM, the GI50 (UACC-62 melanoma) was 304 nM and the TGI (UACC-62 melanoma) was 1880 nM. For the same compound, the GI50 (SK-MEL-28 melanoma) was 374 nM, the TGI (SK-MEL-28 melanoma) was 6800 nM and the GI50 (K-562 leukemia) was 480 nM. The TGI (K-562 leukemia) was over 100000 nM, the GI50 (M14 melanoma) was 318 nM and the TGI (M14 melanoma) was 4310 nM. For the same compound, the GI50 (SNB-75 CNS) was 159 nM, the TGI (SNB-75 CNS) was 407 nM and the GI50 (BT-549 breast) was 226 nM. It also gave a TGI (BT-549 breast) of 800 nM, a GI50 (MOLT-4 leukemia) of 339 nM and a TGI (MOLT-4 leukemia) of over 100000 nM. For the same compound, the GI50 (OVCAR-5 ovarian) was 282 nM, the TGI (OVCAR-5 ovarian) was over 100000 nM and the GI50 (UACC-257 melanoma) was 410 nM. For the same compound, the TGI (UACC-257 melanoma) was over 100000 nM, the GI50 (SK-OV-3 ovarian) was 3890 nM and the TGI (SK-OV-3 ovarian) was over 100000 nM. It also gave a GI50 (RXF 393 renal) of 179 nM, a TGI (RXF 393 renal) of 389 nM and a GI50 (MDA-MB-231 breast) of 313 nM. For the same compound, the TGI (MDA-MB-231 breast) was over 100000 nM, the GI50 (LOX IMVI melanoma) was 252 nM and the TGI (LOX IMVI melanoma) was over 67500 nM. For the same compound, the GI50 (NCI-H226 lung) was 267 nM, the TGI (NCI-H226 lung) was 934 nM and the GI50 (HOP-92 NSCLC) was 279 nM. For the same compound, the TGI (HOP-92 NSCLC) was 2270 nM, the GI50 (HCT-15 colon) was 349 nM and the TGI (HCT-15 colon) was 4890 nM. For the same compound, the GI50 (RPMI-8226 leukemia) was 308 nM, the TGI (RPMI-8226 leukemia) was 14200 nM and the GI50 (OVCAR-3 ovarian) was 355 nM. It also gave a TGI (OVCAR-3 ovarian) of over 24100 nM, a GI50 (MDA-MB-435) of 362 nM and a TGI (MDA-MB-435) of 10800 nM. The GI50 (KM12 colon) was 312 nM, the TGI (KM12 colon) was 12200 nM and the GI50 (ACHN renal) was 327 nM. The TGI (ACHN renal) was over 100000 nM, the GI50 (SN12C renal) was 351 nM and the TGI (SN12C renal) was over 100000 nM. The GI50 (OVCAR-8 ovarian) was 382 nM, the TGI (OVCAR-8 ovarian) was over 100000 nM and the GI50 (MALME-3M melanoma) was 1180 nM. The TGI (MALME-3M melanoma) was 4220 nM, the GI50 (SF-539 CNS) was 240 nM and the TGI (SF-539 CNS) was 781 nM. The GI50 (HCT-116 colon) was 314 nM and the TGI (HCT-116 colon) was over 100000 nM.
